According to patent US11213499B1, “Use of 3,3′-diselenodipropionic acid (DSePA) as an anticancer agent” (Secretary, Department of Atomic Energy, priority 2020, dated 2022):
Where two headings read alike, the source gives them in different places.

Test system: H460 (Human non-small cell lung adenocarcinoma)
Test: SRB/MTT anti-proliferative assay, H460
Format: cell-based
Conditions: 48 hours treatment, read-out: GI50 (Concentration of drug causing 50% inhibition of cell growth)
Description: The anticancer effect of DSePA was evaluated using a panel of twenty-five human cancer cell lines of different tissue origins. Cells were treated with the increasing concentrations (0.1-100 μM) of DSePA for 48 h and viability was monitored by (Sulforhodamine B) SRB assay or MTT assay.
Cell culture and DSePA synthesis—DSePA was synthesized and characterized as described in our previous reports. Cell lines were cultured in growth medium (DMEM/RPMI) supplemented with 10% FBS, 100 U/ml penicillin and 100 μg/ml streptomycin at 37° C. in a humidified 5% CO2 environment. The stock solution of DSePA was prepared fresh in cell culture medium and diluted with the same to achieve the desired concentrations.
SRB/MTT Assay—To evaluate the anti-proliferative effect of DSePA, Cells (˜5×10^3) suspended in 100 μl of complete culture medium were seeded in each well of 96 well plates. The cells were allowed to attach and grow for 24 h, treated with desired concentrations of DSePA dissolved in culture medium for 48 h and then processed for SRB/MTT assay as described in literature. The percentage (%) cytotoxicity was calculated from the decrease in absorbance as compared to that of control group.

O=C(O)CC[Se][Se]CCC(=O)O [DSePA, 3,3′-diselenodipropionic acid]
GI50: 8 µM | GI50 (Homo sapiens, NCI-H460, 48 h): ≤ 10 µM
